Measurements taken from patent publication US7605272B2, “IGF-1R inhibitor” (Kyowa Hakko Kirin Co., Ltd., priority 2005, dated 2009).

How the values were obtained:
NCI-H929 = experiment: Cytostatic activity on human multiple myeloma cell line NCI-H929 (WST-1); type: cell-based; settings: 1 μmol/L, 72 hours; for inhibition at 1 µM: Homo sapiens, NCI-H929, 72 h, read-out: cytostatic rate (%) H929 (1 μmol/L)
Procedure, shortened: (§1)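 Cells pre-cultured 24 h at 37 °C, 5% CO2, then exposed 72 h to compound at final 1 or 10 μmol/L (0.1% DMSO). WST-1 added for 2 h, absorbance at 450 nm (ref 690 nm). Cytostatic rate = 100 minus relative growth, with DMSO control as 100% and blank as 0%.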

KMS-11 = experiment: Cytostatic activity on human multiple myeloma cell line KMS-11 (WST-1); type: cell-based; settings: 1 μmol/L, 72 hours; for inhibition at 1 µM: Homo sapiens, KMS-11, 72 h, read-out: cytostatic rate (%) KMS-11 (1 μmol/L)
Procedure, shortened: as §1

IGF-1R = target: T1, IGF-1R (Homo sapiens, UniProt P08069); experiment: IGF-1R inhibitory activity (kinase reaction, time-resolved fluoroimmunoassay); type: biochemical; settings: IGF-1R active recombinant enzyme, test compound 10 μmol/L
T1 construct: purchased Upstate Co. 14-465
T1 sequence (P08069 959-1367 limits assumed): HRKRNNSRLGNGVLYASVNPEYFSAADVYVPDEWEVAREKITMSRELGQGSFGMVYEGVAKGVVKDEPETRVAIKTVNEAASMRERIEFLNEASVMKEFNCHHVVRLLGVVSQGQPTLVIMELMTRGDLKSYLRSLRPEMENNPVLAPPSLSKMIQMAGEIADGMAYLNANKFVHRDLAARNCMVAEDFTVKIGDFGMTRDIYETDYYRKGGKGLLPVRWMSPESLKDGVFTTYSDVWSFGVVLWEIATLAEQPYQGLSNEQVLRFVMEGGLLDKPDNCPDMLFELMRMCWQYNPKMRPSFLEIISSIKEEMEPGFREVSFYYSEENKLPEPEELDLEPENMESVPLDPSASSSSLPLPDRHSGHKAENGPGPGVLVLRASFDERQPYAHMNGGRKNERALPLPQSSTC
Procedure, shortened: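 Compounds were tested at a single 10 μmol/L concentration. Each was incubated with recombinant IGF-1R (200 μg/L), 10 mmol/L ATP, MgCl2/MnCl2 and Na3VO4 (pH 7.5) on immobilized poly(Glu-Tyr) peptide for 30 min at 24° C. Eu-anti-phosphotyrosine time-resolved fluorescence (340/615 nm) gave relative activity against no-compound and no-enzyme wells, reported as % inhibition.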

Compound | inhibition at 10 µM (IGF-1R) | inhibitory activity (%) at 10 μmol/L (IGF-1R) | inhibition at 1 µM (NCI-H929) | inhibition at 1 µM (KMS-11) | cytostatic rate (%) H929 (1 μmol/L) (NCI-H929) | cytostatic rate (%) KMS-11 (1 μmol/L) (KMS-11)
COc1c(OCCCN2CC[C@@H](N)C2)ccc(/C=C/c2n[nH]c3ccccc23)c1NC(=O)c1sccc1C [Compound 346, (R)-(E)-N-{3-[3-(3-aminopyrrolidin-1-yl)propoxy]-6-[2-(1H-indazol-3-yl)vinyl]-2-methoxyphenyl}-3-methylthiophene-2-carboxamide] | 114% |  | 114% | 97.2% |  | 
COc1c(OCCCN(C)CCO)ccc(/C=C/c2n[nH]c3ccccc23)c1NC(=O)c1sccc1C [Compound 347, (E)-N-{3-{3-[(2-hydroxyethyl)methylamino]propoxy}-6-[2-(1H-indazol-3-yl)vinyl]-2-methoxyphenyl}-3-methylthiophene-2-carboxamide] | 106% |  | 116% | 116% |  | 
COc1c(OCCN2CCC(O)CC2)ccc(/C=C/c2n[nH]c3ccccc23)c1NC(=O)c1sccc1C [Compound 349, (E)-{3-[2-(4-hydroxypiperidin-1-yl)ethoxy]-6-[2-(1H-indazol-3-yl)vinyl]-2-methoxyphenyl}-3-methylthiophene-2-carboxamide] |  | 101.9% |  |  | 116.3% | 117.2%

Further lines, with some results ahead:

inhibition at 10 µM (IGF-1R) | inhibitory activity (%) at 10 μmol/L (IGF-1R) | Compound | inhibition at 1 µM (NCI-H929) | inhibition at 1 µM (KMS-11) | cytostatic rate (%) H929 (1 μmol/L) (NCI-H929) | cytostatic rate (%) KMS-11 (1 μmol/L) (KMS-11)
111% |  | COc1c(OCCCN2CCC(CO)CC2)ccc(/C=C/c2n[nH]c3ccccc23)c1NC(=O)c1sccc1C [Compound 350, (E)-N-(3-{3-[4-(hydroxymethyl)piperidin-1-yl]propoxy}-6-[2-(1H-indazol-3-yl)vinyl]-2-methoxyphenyl)-3-methylthiophene-2-carboxamide] | 117% | 117% |  | 
103% |  | Cn1ccnc1C(=O)Nc1ccccc1/C=C/c1n[nH]c2ccccc12 [Compound 352, (E)-N-{2-[2-(1H-indazol-3-yl)vinyl]phenyl}-1-methyl-1H-imidazole-2-carboxamide] | 108% | 84.8% |  | 
102% |  | Cc1c(Br)csc1C(=O)Nc1ccccc1/C=C/c1n[nH]c2ccccc12 [Compound 353, (E)-N-{2-[2-(1H-indazol-3-yl)vinyl]phenyl}-4-bromo-3-methylthiophene-2-carboxamide] | 104% | 77.4% |  | 
